Experimental data reported in ChEMBL document CHEMBL1134190, “Synthesis of substituted 4(Z)-(methoxyimino)pentyl-1-piperidines as dual NK1/NK2 inhibitors” (Bioorg Med Chem Lett, 2001).

How the values were obtained:
[1] = biological target: T1, Substance-K receptor (Homo sapiens, UniProt P21452); test: Binding affinity towards NK2 receptor
T1 sequence (P21452 whole entry): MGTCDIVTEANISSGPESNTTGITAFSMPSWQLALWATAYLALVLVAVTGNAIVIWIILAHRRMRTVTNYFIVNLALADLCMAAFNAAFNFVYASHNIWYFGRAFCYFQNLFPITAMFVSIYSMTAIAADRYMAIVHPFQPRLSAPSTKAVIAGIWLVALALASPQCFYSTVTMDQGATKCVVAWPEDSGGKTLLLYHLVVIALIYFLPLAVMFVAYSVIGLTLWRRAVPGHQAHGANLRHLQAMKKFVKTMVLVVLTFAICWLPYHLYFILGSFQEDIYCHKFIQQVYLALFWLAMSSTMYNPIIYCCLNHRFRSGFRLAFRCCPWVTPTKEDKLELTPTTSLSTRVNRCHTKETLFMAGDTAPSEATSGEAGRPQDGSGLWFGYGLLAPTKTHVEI

[2] = biological target: Substance-P receptor (Homo sapiens, UniProt P25103); test: Binding affinity towards NK1 receptor
Substance-P receptor, sequence (P25103 whole entry): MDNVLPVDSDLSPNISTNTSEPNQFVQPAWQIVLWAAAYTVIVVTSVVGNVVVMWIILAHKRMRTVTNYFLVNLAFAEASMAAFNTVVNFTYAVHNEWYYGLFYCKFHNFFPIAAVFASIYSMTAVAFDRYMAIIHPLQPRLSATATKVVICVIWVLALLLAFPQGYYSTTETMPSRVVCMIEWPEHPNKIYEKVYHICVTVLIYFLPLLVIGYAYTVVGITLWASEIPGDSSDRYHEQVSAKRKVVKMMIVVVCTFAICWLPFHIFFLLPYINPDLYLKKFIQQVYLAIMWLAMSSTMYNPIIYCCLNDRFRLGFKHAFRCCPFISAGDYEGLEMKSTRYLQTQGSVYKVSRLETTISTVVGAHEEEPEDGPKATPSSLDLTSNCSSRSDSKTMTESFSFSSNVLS

Row | Structure (SMILES) | Ki [1] [µM] | Ki [2] [µM]
1 | CO/N=C(\COCc1cc(C(F)(F)F)cc(C(F)(F)F)c1)C(CCN1CCC(CN2CCCC(CC3CC3)C2=O)CC1)c1ccc(Cl)c(Cl)c1 (stereo not drawn) | 0.026 | 0.014
2 | CO/N=C(\COCc1cc(C(F)(F)F)cc(C(F)(F)F)c1)C(CCN1CCC(CN2CCCC(CC(O)CO)C2=O)CC1)c1ccc(Cl)c(Cl)c1 (stereo not drawn) | 0.016 | 0.007
3 | CO/N=C(\COCc1cc(C(F)(F)F)cc(C(F)(F)F)c1)C(CCN1CCC(CN2CCCC(OC(=O)NC(C)C)C2)CC1)c1ccc(Cl)c(Cl)c1 (stereo not drawn) | 0.033 | 0.017
4 | CO/N=C(\COCc1cc(C(F)(F)F)cc(C(F)(F)F)c1)C(CCN1CCC(CN2CCOCC2)CC1)c1ccc(Cl)c(Cl)c1 (stereo not drawn) | 0.039 | 0.014
5 | C=CCC1CCCN(CC2CCN(CCC(/C(COCc3cc(C(F)(F)F)cc(C(F)(F)F)c3)=N/OC)c3ccc(Cl)c(Cl)c3)CC2)C1=O (stereo not drawn) | 0.058 | 0.013
6 | CO/N=C(\COCc1cc(C(F)(F)F)cc(C(F)(F)F)c1)C(CCN1CCC(CN2CCCCC2=S)CC1)c1ccc(Cl)c(Cl)c1 (stereo not drawn) | 0.023 | 0.02
7 | CCOC(=O)C1CCCN(CC2CCN(CCC(/C(COCc3cc(C(F)(F)F)cc(C(F)(F)F)c3)=N/OC)c3ccc(Cl)c(Cl)c3)CC2)C1 (stereo not drawn) | 0.028 | 0.016
8 | CO/N=C(\COCc1cc(C(F)(F)F)cc(C(F)(F)F)c1)C(CCN1CCC(CN2CCCC(CO)C2)CC1)c1ccc(Cl)c(Cl)c1 (stereo not drawn) | 0.039 | 0.05
9 | CO/N=C(\COCc1cc(C(F)(F)F)cc(C(F)(F)F)c1)C(CCN1CCC(CN2CCCCC2CCO)CC1)c1ccc(Cl)c(Cl)c1 (stereo not drawn) | 0.014 | 0.013
10 | CO/N=C(\COCc1cc(C(F)(F)F)cc(C(F)(F)F)c1)C(CCN1CCC(CN2CCCC(Cc3ccccc3)C2=O)CC1)c1ccc(Cl)c(Cl)c1 (stereo not drawn) | 0.091 | 0.069
11 | CO/N=C(\COCc1cc(C(F)(F)F)cc(C(F)(F)F)c1)C(CCN1CCC(NC(=O)C2CCCCC2)CC1)c1ccc(Cl)c(Cl)c1 (stereo not drawn) | 0.146 | 0.044
12 | CO/N=C(\COCc1cc(C(F)(F)F)cc(C(F)(F)F)c1)C(CCN1CCC(NC(=O)c2ccccc2)CC1)c1ccc(Cl)c(Cl)c1 (stereo not drawn) | 0.144 | 0.018
13 | CO/N=C(\COCc1cc(C(F)(F)F)cc(C(F)(F)F)c1)C(CCN1CCC(CNC(=O)c2ccccc2)CC1)c1ccc(Cl)c(Cl)c1 (stereo not drawn) | 0.137 | 0.112
14 | CO/N=C(\COCc1cc(C(F)(F)F)cc(C(F)(F)F)c1)C(CCN1CCC(CNC2(CO)CCCC2)CC1)c1ccc(Cl)c(Cl)c1 (stereo not drawn) | 0.016 | 0.024
15 | CO/N=C(\COCc1cc(C(F)(F)F)cc(C(F)(F)F)c1)C(CCN1CCC(N2CCC(OC(=O)NC(C)C)C2)CC1)c1ccc(Cl)c(Cl)c1 (stereo not drawn) | 0.067 | 0.019
16 | CO/N=C(\COCc1cc(C(F)(F)F)cc(C(F)(F)F)c1)C(CCN1CCC(CN2CCCC(O)C2)CC1)c1ccc(Cl)c(Cl)c1 (stereo not drawn) | 0.047 | 0.038
17 | CO/N=C(\COCc1cc(C(F)(F)F)cc(C(F)(F)F)c1)C(CCN1CCC(CN2CCCC2=O)CC1)c1ccc(Cl)c(Cl)c1 (stereo not drawn) | 0.021 | 0.008
18 | CO/N=C(\COCc1cc(C(F)(F)F)cc(C(F)(F)F)c1)C(CCN1CCC(CN2CCCCC2=O)CC1)c1ccc(Cl)c(Cl)c1 (stereo not drawn) | 0.012 | 0.01
19 | CO/N=C(\COCc1cc(C(F)(F)F)cc(C(F)(F)F)c1)C(CCN1CCC(CN2CCCCC2CO)CC1)c1ccc(Cl)c(Cl)c1 (stereo not drawn) | 0.053 | 0.02
20 | CO/N=C(\COCc1cc(C(F)(F)F)cc(C(F)(F)F)c1)C(CCN1CCC(C(N)=O)CC1)c1ccc(Cl)c(Cl)c1 (stereo not drawn) | 0.067 | –
21 | CO/N=C(\COCc1cc(C(F)(F)F)cc(C(F)(F)F)c1)C(CCN1CCC(CN2CCCC(C(N)=O)C2)CC1)c1ccc(Cl)c(Cl)c1 (stereo not drawn) | 0.027 | 0.025

Other lines, results leading:

Row | Ki [1] [µM] | Ki [2] [µM] | Structure (SMILES)
22 | 0.004 | 0.018 | CO/N=C(\COCc1cc(C(F)(F)F)cc(C(F)(F)F)c1)C(CCN1CCC(N2CCCCC2=O)CC1)c1ccc(Cl)c(Cl)c1 (stereo not drawn)
23 | 0.02 | 0.117 | CCOC(=O)C1CCCN(C2CCN(CCC(/C(COCc3cc(C(F)(F)F)cc(C(F)(F)F)c3)=N/OC)c3ccc(Cl)c(Cl)c3)CC2)C1 (stereo not drawn)
24 | 0.195 | 0.036 | CO/N=C(\COCc1cc(C(F)(F)F)cc(C(F)(F)F)c1)C(CCN1CCC(N2CCCC2)CC1)c1ccc(Cl)c(Cl)c1 (stereo not drawn)
25 | 0.015 | 0.014 | CO/N=C(\COCc1cc(C(F)(F)F)cc(C(F)(F)F)c1)C(CCN1CCC(N2CCCCC2CO)CC1)c1ccc(Cl)c(Cl)c1 (stereo not drawn)
26 | 0.016 | 0.004 | CO/N=C(\COCc1cc(C(F)(F)F)cc(C(F)(F)F)c1)C(CCN1CCC(N2CCC(O)C2)CC1)c1ccc(Cl)c(Cl)c1 (stereo not drawn)
27 | 0.007 | 0.009 | CO/N=C(\COCc1cc(C(F)(F)F)cc(C(F)(F)F)c1)C(CCN1CCC(N2CCCC2=O)CC1)c1ccc(Cl)c(Cl)c1 (stereo not drawn)
28 | 0.026 | 0.036 | CO/N=C(\COCc1cc(C(F)(F)F)cc(C(F)(F)F)c1)C(CCN1CCC(CN2CCCCC2)CC1)c1ccc(Cl)c(Cl)c1 (stereo not drawn)
29 | 0.011 | 0.013 | CO/N=C(\COCc1cc(C(F)(F)F)cc(C(F)(F)F)c1)C(CCN1CCC(N2CCCC(C(N)=O)C2)CC1)c1ccc(Cl)c(Cl)c1 (stereo not drawn)
30 | 0.059 | 0.006 | CO/N=C(\COCc1cc(C(F)(F)F)cc(C(F)(F)F)c1)C(CCN1CCC(C(=O)N2CCCC2)CC1)c1ccc(Cl)c(Cl)c1 (stereo not drawn)
31 | 0.023 | 0.016 | CO/N=C(\COCc1cc(C(F)(F)F)cc(C(F)(F)F)c1)C(CCN1CCC(N2CCCC2=S)CC1)c1ccc(Cl)c(Cl)c1 (stereo not drawn)
32 | 0.011 | 0.013 | CO/N=C(\COCc1cc(C(F)(F)F)cc(C(F)(F)F)c1)C(CCN1CCC(N2CCC[C@H]2C(N)=O)CC1)c1ccc(Cl)c(Cl)c1 (stereo partly drawn)
